Test results: the RepoRT retention time repository

Assay: HILIC, Waters ACQUITY UPLC BEH Amide, 100 × 2.1 mm, 1.7 µm; A: water + 0.125% formic acid + 10 mM ammonium formate; B: 5% water + 95% acetonitrile + 0.125% formic acid + 10 mM ammonium formate; gradient (min/%B) 0/100 2/100 7.7/70 9.5/40 10.25/30 12.75/100 17/100
Conditions: stereoisomer not certain

CSCCC(NC=O)C(=O)O (stereo unspecified) [N-Formylmethionine]
LC retention time: 3.93 min

O=c1ccc2ccccc2o1 [Coumarin]
LC retention time: 1.08 min

Nc1nc(N)nc(-c2cc(Cl)ccc2Cl)n1 [Irsogladine]
LC retention time: 1.25 min

C=C1CC2C(CCC3(C)C(=O)CCC23)C2(C)C=CC(=O)C=C12 (stereo unspecified) [Exemestane]
LC retention time: 0.98 min

COc1cccc(C2(O)CCCCC2CN(C)C)c1 (stereo unspecified) [Tramadol]
LC retention time: 2.52 min

CC(C=CC1(O)C(C)=CC(=O)CC1(C)C)=CC(=O)O (stereo unspecified) [Abscisic acid]
LC retention time: 1.33 min

NC(=NCc1ccc(Cl)cc1)SCCCc1cnc[nH]1 [Clobenpropit]
LC retention time: 6.13 min

NC(CS)C(=O)O (stereo unspecified) [Cysteine]
LC retention time: 5.31 min

Cc1cccc(C)c1NC(=O)C(C)N (stereo unspecified) [Tocainide]
LC retention time: 4.97 min

O=C1CC2(CCCC2)CC(=O)N1CCNCC1COc2ccccc2O1 (stereo unspecified) [Binospirone]
LC retention time: 1.8 min

CN(C)C=O [N,N-Dimethylformamide]
LC retention time: 1.29 min

CC=C1N(C)C(C)CC1(c1ccccc1)c1ccccc1 (stereo unspecified) [EDDP]
LC retention time: 1.9 min

CC1OC(OC2C(Oc3cc(O)c4c(c3)OC(c3ccc(O)cc3)CC4=O)OC(CO)C(O)C2O)C(O)C(O)C1O (stereo unspecified) [Naringin]
LC retention time: 5.61 min

CNC[C@H](N)C(=O)O [beta-N-Methylaminoalanine]
LC retention time: 9.32 min

O=[N+]([O-])c1cccc2cn[nH]c12 [7-Nitroindazole]
LC retention time: 1.03 min

Nc1nc2c(ncn2C2CC(O)C(CO)O2)c(=O)[nH]1 (stereo unspecified) [2'-Deoxyguanosine]
LC retention time: 6.4 min

CC(=O)NCCc1c[nH]c2ccc(O)cc12 [N-Acetyl-5-hydroxytryptamine]
LC retention time: 1.43 min

NC(=O)OCCCc1ccccc1 [Phenprobamate]
LC retention time: 1.01 min

O=CNC1CCCCC1 [N-Cyclohexylformamide]
LC retention time: 1.2 min

Oc1ccc(C2CNCCc3c2cc(O)c(O)c3Cl)cc1 (stereo unspecified) [Fenoldopam]
LC retention time: 5.68 min

CC(C)C1=CC2=CCC3C(C)(C(=O)O)CCCC3(C)C2CC1 (stereo unspecified) [Abietic acid]
LC retention time: 1.11 min

CNC(C)C(=O)O (stereo unspecified) [N-Methylalanine]
LC retention time: 7.67 min

NC(N)=NCCCCC(N)C(=O)O (stereo unspecified) [Homoarginine]
LC retention time: 9.34 min

CN1CCN(CCCN2c3ccccc3Sc3ccc(Cl)cc32)CC1 [Prochlorperazine]
LC retention time: 2.56 min

CCCCCCCCCCCC(=O)OC(CC(=O)[O-])C[N+](C)(C)C [Lauroyl-L-carnitine]
LC retention time: 3.63 min

Nc1cc(CC(N)C(=O)O)ccc1O (stereo unspecified) [3-Aminotyrosine]
LC retention time: 8.06 min

O=C(O)C1CCCN1 (stereo unspecified) [Proline]
LC retention time: 7.83 min

O=CC=Cc1ccccc1 [Cinnamaldehyde]
LC retention time: 9.18 min

O=c1ccc2ccccc2[nH]1 [2-Hydroxyquinoline]
LC retention time: 1.51 min

CC(O)C(N)=O (stereo unspecified) [Lactamide]
LC retention time: 1.74 min

O=C(O)CNC(=O)c1cccnc1 [Nicotinoylglycine]
LC retention time: 7.08 min

COCCOC(=O)C1=C(C)NC(C)=C(C(=O)OC(C)C)C1c1cccc([N+](=O)[O-])c1 (stereo unspecified) [Nimodipine]
LC retention time: 0.94 min

COc1ccc2c(c1OC)C(=O)OC2C1c2c(cc3c(c2OC)OCO3)CCN1C (stereo unspecified) [Noscapine]
LC retention time: 1.31 min

CN1CCC(=C2c3ccccc3C=Cc3ccccc32)CC1 [Cyproheptadine]
LC retention time: 2.31 min

NCCCCC(N)C(=O)NCC(=O)O (stereo unspecified) [Lys-Gly]
LC retention time: 9.84 min

Cn1cncc1CC(N)C(=O)O (stereo unspecified) [3-Methylhistidine]
LC retention time: 9.41 min

COCC1=C(C(=O)OC(C)OC(=O)OC(C)C)N2C(=O)C(NC(=O)C(=NOC)c3csc(N)n3)C2SC1 (stereo unspecified)
LC retention time: 1.12 min

O=P(O)(O)Oc1ccccc1 [Phenylphosphoric acid]
LC retention time: 7.05 min

NC(N)=NOCCC(N)C(=O)O (stereo unspecified) [Canavanine]
LC retention time: 9.42 min

C#CC1(O)CCC2C3C(C)CC4=C(CCC(=O)C4)C3CCC21C (stereo unspecified) [Tibolone]
LC retention time: 1 min

COc1ccc(CCN)cc1OC [Homoveratrylamine]
LC retention time: 4.78 min

COC1=C(OC)C(=O)C(CCCCCCCCCCO)=C(C)C1=O [Idebenone]
LC retention time: 0.96 min

NC(Cn1cccn1)C(=O)O (stereo unspecified) [3-(1-Pyrazolyl)-alanine]
LC retention time: 7.54 min

CN1CCCCC1CCN1c2ccccc2Sc2ccc(S(C)=O)cc21 (stereo unspecified) [Mesoridazine]
LC retention time: 4.24 min

CC(C)C(C)C=CC(C)C1CCC2C3=CC=C4CC(O)CCC4(C)C3CCC21C (stereo unspecified) [Ergosterol]
LC retention time: 1.43 min

COc1ccc(-c2oc3c(CC=C(C)C)c(OC4OC(CO)C(O)C(O)C4O)cc(O)c3c(=O)c2OC2OC(C)C(O)C(O)C2O)cc1 (stereo unspecified) [Icarin]
LC retention time: 4.74 min

COc1ccc2c(c1)C13CCCCC1C(C2)N(C)CC3 (stereo unspecified) [Dextromethorphan]
LC retention time: 2.64 min

Cn1c(=O)c2c(ncn2C)n(C)c1=O [Caffeine]
LC retention time: 1.21 min

CC(C)CC(N)C(=O)O (stereo unspecified) [Leucine]
LC retention time: 7.08 min

CN1CCCC1c1cccnc1 (stereo unspecified) [Nicotine]
LC retention time: 5.34 min

NCCP(=O)(O)O [2-Aminoethylphosphonic acid]
LC retention time: 9.39 min

Clc1ccc2c(c1)CCc1cccnc1C2=C1CCNCC1 [Desloratadine]
LC retention time: 4.9 min

CC(=O)NCCCCCCNC(C)=O
LC retention time: 1.5 min

c1ccncc1 [Pyridine]
LC retention time: 6.63 min

CCCC(=O)OC(CC(=O)[O-])C[N+](C)(C)C [(R)-Butyrylcarnitine]
LC retention time: 5.77 min

Cc1cn(C2CC(O)C(COP(=O)(O)O)O2)c(=O)[nH]c1=O (stereo unspecified) [Thymidine 5'-monophosphate]
LC retention time: 8.28 min

CN(C)CCC=C1c2ccccc2COc2ccc(CC(=O)O)cc21 [Olopatadine]
LC retention time: 4.41 min

CN(CCCN1c2ccccc2CCc2ccccc21)CC(=O)c1ccc(Cl)cc1 [Lofepramine]
LC retention time: 1.91 min

O=Cc1ccc(O)cc1 [4-Hydroxybenzaldehyde]
LC retention time: 1.18 min

CCN(C(C)=O)c1cccc(-c2ccnc3c(C#N)cnn23)c1 [Zaleplon]
LC retention time: 1.02 min

O=C1Nc2ccc(Cl)cc2C(c2ccccc2Cl)=NC1O (stereo unspecified) [Lorazepam]
LC retention time: 1.33 min

OCC1OC(OC2C(CO)OC(O)C(O)C2O)C(O)C(O)C1O (stereo unspecified) [Maltose]
LC retention time: 8.75 min

CCC(=O)Nc1ccc(Cl)c(Cl)c1 [Propanil]
LC retention time: 1.08 min

CC(O)C(C)C(=O)O (stereo unspecified) [Methyl-3-hydroxybutyric acid]
LC retention time: 6.22 min

CC(C)CCCC(C)C1CCC2C3C(O)C=C4CC(O)CCC4(C)C3CCC12C (stereo not drawn) [5-Cholesten-3-beta-7-alpha-diol]
LC retention time: 3.36 min

CC12CC(=O)C3C(CCC4=CC(=O)CCC43C)C1CCC2=O (stereo unspecified) [Adrenosterone]
LC retention time: 1.1 min

O=C(O)c1cccnc1 [Nicotinic acid]
LC retention time: 4.01 min

CC(N)C(O)c1ccccc1 (stereo unspecified) [Phenylpropanolamine]
LC retention time: 5.29 min

Cc1sc(N)c(C(=O)c2cccc(C(F)(F)F)c2)c1C
LC retention time: 0.94 min

O=C(CCNNC(=O)c1ccncc1)NCc1ccccc1 [Nialamide]
LC retention time: 1.69 min

CC=C1C2C=C(C)CC1(N)c1ccc(=O)[nH]c1C2 (stereo unspecified) [Huperzine]
LC retention time: 5.74 min
